Measured values as given in patent US8436012B2, “Imidazopyridin-2-one derivatives” (Daiichi Sankyo Company, Limited, priority 2008, dated 2013).

What was measured:
human mTOR = molecular target: T1, human mTOR (Homo sapiens, UniProt P42345); test: mTOR Kinase Activity Inhibition Test; assay type: biochemical; settings: His-tagged mTOR (1362C), biotinylated peptide substrate, ATP, 3 hours at room temperature, fluorescence resonance energy transfer 665 nm/620 nm; read-out: IC50 value of mTOR enzyme inhibitory activity
T1 construct: the portion corresponding to 1362-2549aa at the C terminus of human mTOR; made in house
How it was run: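 Purified His-tagged human mTOR (1362–2549aa, from HEK293) was used with biotinylated peptide (8 μg/mL in enzyme solution) in HEPES pH 7.5 with 20 mM MnCl2. Compounds were diluted in 20 μM ATP solution, and the reaction ran 3 h at RT. Phospho-S6K(Thr389) HTRF was read as the 665/620 nm ratio, and IC50 came from % inhibition versus controls.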

WM-266-4 cells = test: Cell Proliferation Inhibitory Test; assay type: cell-based; settings: Homo sapiens, 72 h, cultured three days with test compound, MTT, read-out: 50% cell proliferation inhibitory activity (GI50 value)
How it was run: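 Cells cultured overnight, then exposed to serially diluted compound for three days; cell amount read by MTT. GI50 solved from 100×[(T−T0)/(C−T0)]=50, with T0 the value at time of compound addition and C the untreated three-day control.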

T1 sequence (P42345 1362-2549): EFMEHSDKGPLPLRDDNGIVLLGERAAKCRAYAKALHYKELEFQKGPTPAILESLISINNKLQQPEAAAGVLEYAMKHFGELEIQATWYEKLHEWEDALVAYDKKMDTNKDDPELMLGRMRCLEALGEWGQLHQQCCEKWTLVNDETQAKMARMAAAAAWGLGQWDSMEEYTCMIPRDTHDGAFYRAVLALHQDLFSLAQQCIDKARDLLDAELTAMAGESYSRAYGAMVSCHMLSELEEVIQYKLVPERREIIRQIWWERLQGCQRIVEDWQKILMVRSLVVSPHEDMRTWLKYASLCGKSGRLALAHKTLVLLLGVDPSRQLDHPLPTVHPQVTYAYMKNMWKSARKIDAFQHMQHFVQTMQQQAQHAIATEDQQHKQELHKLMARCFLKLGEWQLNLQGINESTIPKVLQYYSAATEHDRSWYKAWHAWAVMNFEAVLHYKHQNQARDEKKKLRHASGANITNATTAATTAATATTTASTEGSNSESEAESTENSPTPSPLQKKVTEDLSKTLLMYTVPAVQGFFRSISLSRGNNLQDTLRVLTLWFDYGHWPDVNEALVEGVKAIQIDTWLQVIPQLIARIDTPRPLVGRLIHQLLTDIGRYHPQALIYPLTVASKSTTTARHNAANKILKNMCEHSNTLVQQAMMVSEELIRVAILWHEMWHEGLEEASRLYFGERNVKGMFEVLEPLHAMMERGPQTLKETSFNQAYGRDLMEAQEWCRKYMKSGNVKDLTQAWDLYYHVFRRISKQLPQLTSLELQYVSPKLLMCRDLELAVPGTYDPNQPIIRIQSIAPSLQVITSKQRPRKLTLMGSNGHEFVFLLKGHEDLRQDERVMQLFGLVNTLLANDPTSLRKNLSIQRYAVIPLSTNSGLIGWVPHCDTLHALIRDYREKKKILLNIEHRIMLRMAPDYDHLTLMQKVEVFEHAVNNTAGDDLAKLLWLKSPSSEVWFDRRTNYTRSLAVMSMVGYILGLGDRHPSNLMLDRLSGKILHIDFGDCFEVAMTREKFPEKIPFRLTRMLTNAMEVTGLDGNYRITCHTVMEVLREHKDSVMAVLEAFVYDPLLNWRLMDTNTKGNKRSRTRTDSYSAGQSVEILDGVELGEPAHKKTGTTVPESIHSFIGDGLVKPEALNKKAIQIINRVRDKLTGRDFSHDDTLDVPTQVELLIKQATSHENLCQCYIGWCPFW

Cc1nc2[nH]ccc2cc1-c1cnc2[nH]c(=O)n(C[C@H]3COCCO3)c2c1 [Example 129, 1-[(2S)-1,4-Dioxan-2-ylmethyl]-6-(6-methyl-1H-pyrrolo[2,3-b]pyridin-5-yl)-1,3-dihydro-2H-imidazo[4,5-b]pyridin-2-one]
IC50 (human mTOR): < 50 nM | GI50 (WM-266-4 cells): < 3000 nM

Nc1c(-c2cnc3[nH]c(=O)n(C[C@H]4COCCO4)c3c2)cnc2[nH]ccc12 [Example 130, 6-(4-Amino-1H-pyrrolo[2,3-b]pyridin-5-yl)-1-[(2S)-1,4-dioxan-2-ylmethyl]-1,3-dihydro-2H-imidazo[4,5-b]pyridin-2-one]
IC50 (human mTOR): < 50 nM | GI50 (WM-266-4 cells): 3000 to 25000 nM

CN(C)c1c(-c2cnc3[nH]c(=O)n(C[C@H]4COCCO4)c3c2)cnc2[nH]ccc12 [Example 131, 6-[4-(Dimethylamino)-1H-pyrrolo[2,3-b]pyridin-5-yl]-1-[(2S)-1,4-dioxan-2-ylmethyl]-1,3-dihydro-2H-imidazo[4,5-b]pyridin-2-one]
IC50 (human mTOR): 100 to 5000 nM | GI50 (WM-266-4 cells): 3000 to 25000 nM

CN(CCO)c1c(-c2cnc3[nH]c(=O)n(C[C@H]4COCCO4)c3c2)cnc2[nH]ccc12 [Example 132, 1-[(2S)-1,4-Dioxan-2-ylmethyl]-6-{4-[(2-hydroxyethyl)(methyl)amino]-1H-pyrrolo[2,3-b]pyridin-5-yl}-1,3-dihydro-2H-imidazo[4,5-b]pyridin-2-one]
IC50 (human mTOR): 100 to 5000 nM | GI50 (WM-266-4 cells): 3000 to 25000 nM

COc1c(-c2cnc3[nH]c(=O)n(C[C@H]4COCCO4)c3c2)cnc2[nH]ccc12 [Example 133, 1-[(2S)-1,4-Dioxan-2-ylmethyl]-6-(4-methoxy-1H-pyrrolo[2,3-b]pyridin-5-yl)-1,3-dihydro-2H-imidazo[4,5-b]pyridin-2-one]
IC50 (human mTOR): < 50 nM | GI50 (WM-266-4 cells): < 3000 nM

COc1c[nH]c2ncc(-c3cnc4[nH]c(=O)n(C[C@H]5COCCO5)c4c3)cc12 [Example 134, 1-[(2S)-1,4-Dioxan-2-ylmethyl]-6-(3-methoxy-1H-pyrrolo[2,3-b]pyridin-5-yl)-1,3-dihydro-2H-imidazo[4,5-b]pyridin-2-one]
IC50 (human mTOR): < 50 nM | GI50 (WM-266-4 cells): < 3000 nM

CO[C@H]1CC[C@@H](Cn2c(=O)[nH]c3ncc(-c4cnc5[nH]ccc5c4)cc32)OC1 [Example 135, 2,6-Anhydro-1,3,4-trideoxy-5-O-methyl-1-[2-oxo-6-(1H-pyrrolo[2,3-b]pyridin-5-yl)-2,3-dihydro-1H-imidazo[4,5-b]pyridin-1-yl]-D-threo-hexitol]
IC50 (human mTOR): < 50 nM | GI50 (WM-266-4 cells): < 3000 nM

CO[C@@H]1CC[C@H](Cn2c(=O)[nH]c3ncc(-c4cnc5[nH]ccc5c4)cc32)OC1 [Example 136, 2,6-Anhydro-1,3,4-trideoxy-5-O-methyl-1-[2-oxo-6-(1H-pyrrolo[2,3-b]pyridin-5-yl)-2,3-dihydro-1H-imidazo[4,5-b]pyridin-1-yl]-L-threo-hexitol]
IC50 (human mTOR): < 50 nM | GI50 (WM-266-4 cells): < 3000 nM

CO[C@H]1CCO[C@@H](Cn2c(=O)[nH]c3ncc(-c4cnc5[nH]ccc5c4)cc32)C1 [Example 137, 2,6-Anhydro-1,3,5-trideoxy-4-O-methyl-1-[2-oxo-6-(1H-pyrrolo[2,3-b]pyridin-5-yl)-2,3-dihydro-1H-imidazo[4,5-b]pyridin-1-yl]-L-threo-hexitol]
IC50 (human mTOR): < 50 nM | GI50 (WM-266-4 cells): < 3000 nM

CO[C@@H]1CCO[C@H](Cn2c(=O)[nH]c3ncc(-c4cnc5[nH]ccc5c4)cc32)C1 [Example 138, 2,6-Anhydro-1,3,5-trideoxy-4-O-methyl-1-[2-oxo-6-(1H-pyrrolo[2,3-b]pyridin-5-yl)-2,3-dihydro-1H-imidazo[4,5-b]pyridin-1-yl]-D-threo-hexitol]
IC50 (human mTOR): < 50 nM | GI50 (WM-266-4 cells): < 3000 nM

CO[C@H]1CCO[C@@H](Cn2c(=O)[nH]c3ncc(-c4cnc5[nH]ccc5c4C)cc32)C1 [Example 139, 2,6-Anhydro-1,3,5-trideoxy-4-O-methyl-1-[6-(4-methyl-1H-pyrrolo[2,3-b]pyridin-5-yl)-2-oxo-2,3-dihydro-1H-imidazo[4,5-b]pyridin-1-yl]-L-threo-hexitol]
IC50 (human mTOR): < 50 nM | GI50 (WM-266-4 cells): < 3000 nM

CO[C@@H]1CCO[C@H](Cn2c(=O)[nH]c3ncc(-c4cnc5[nH]ccc5c4C)cc32)C1 [Example 140, 2,6-Anhydro-1,3,5-trideoxy-4-O-methyl-1-[6-(4-methyl-1H-pyrrolo[2,3-b]pyridin-5-yl)-2-oxo-2,3-dihydro-1H-imidazo[4,5-b]pyridin-1-yl]-D-threo-hexitol]
IC50 (human mTOR): < 50 nM | GI50 (WM-266-4 cells): < 3000 nM

Cc1c(-c2cnc3[nH]c(=O)n(C[C@H]4CC[C@@H](O)CO4)c3c2)cnc2[nH]ccc12 [Example 143, 2,6-Anhydro-1,3,4-trideoxy-1-[6-(4-methyl-1H-pyrrolo[2,3-b]pyridin-5-yl)-2-oxo-2,3-dihydro-1H-imidazo[4,5-b]pyridin-1-yl]-L-threo-hexitol]
IC50 (human mTOR): < 50 nM | GI50 (WM-266-4 cells): < 3000 nM

Cc1c[nH]c2ncc(-c3cnc4[nH]c(=O)n(C[C@H]5CC[C@@H](O)CO5)c4c3)c(C)c12 [Example 144, 2,6-Anhydro-1,3,4-trideoxy-1-[6-(3,4-dimethyl-1H-pyrrolo[2,3-b]pyridin-5-yl)-2-oxo-2,3-dihydro-1H-imidazo[4,5-b]pyridin-1-yl]-L-threo-hexitol]
IC50 (human mTOR): < 50 nM | GI50 (WM-266-4 cells): < 3000 nM

Cc1c(-c2cnc3[nH]c(=O)n(C[C@H]4CC[C@@H](O)CO4)c3c2)cnc2[nH]cc(Cl)c12 [Example 145, 2,6-Anhydro-1-[6-(3-chloro-4-methyl-1H-pyrrolo[2,3-b]pyridin-5-yl)-2-oxo-2,3-dihydro-1H-imidazo[4,5-b]pyridin-1-yl]-1,3,4-trideoxy-L-threo-hexitol]
IC50 (human mTOR): < 50 nM | GI50 (WM-266-4 cells): < 3000 nM

CO[C@@H]1CC[C@H](Cn2c(=O)[nH]c3ncc(-c4cnc5[nH]ccc5c4C)cc32)OC1 [Example 146, 2,6-Anhydro-1,3,4-trideoxy-5-O-methyl-1-[6-(4-methyl-1H-pyrrolo[2,3-b]pyridin-5-yl)-2-oxo-2,3-dihydro-1H-imidazo[4,5-b]pyridin-1-yl]-L-threo-hexitol]
IC50 (human mTOR): < 50 nM | GI50 (WM-266-4 cells): < 3000 nM

CO[C@@H]1CC[C@H](Cn2c(=O)[nH]c3ncc(-c4cnc5[nH]cc(C)c5c4C)cc32)OC1 [Example 147, 2,6-Anhydro-1,3,4-trideoxy-1-[6-(3,4-dimethyl-1H-pyrrolo[2,3-b]pyridin-5-yl)-2-oxo-2,3-dihydro-1H-imidazo[4,5-b]pyridin-1-yl]-5-O-methyl-L-threo-hexitol]
IC50 (human mTOR): < 50 nM | GI50 (WM-266-4 cells): < 3000 nM

CO[C@@H]1CC[C@H](Cn2c(=O)[nH]c3ncc(-c4cnc5[nH]cc(Cl)c5c4C)cc32)OC1 [Example 148, 2,6-Anhydro-1-[6-(3-chloro-4-methyl-1H-pyrrolo[2,3-b]pyridin-5-yl)-2-oxo-2,3-dihydro-1H-imidazo[4,5-b]pyridin-1-yl]-1,3,4-trideoxy-5-O-methyl-L-threo-hexitol]
IC50 (human mTOR): < 50 nM | GI50 (WM-266-4 cells): < 3000 nM

Cc1nc2[nH]c(=O)n(C[C@H]3CC[C@@H](O)CO3)c2cc1-c1cnc2[nH]ccc2c1 [Example 149, 2,6-Anhydro-1,3,4-trideoxy-1-[5-methyl-2-oxo-6-(1H-pyrrolo[2,3-b]pyridin-5-yl)-2,3-dihydro-1H-imidazo[4,5-b]pyridin-1-yl]-L-threo-hexitol]
IC50 (human mTOR): < 50 nM | GI50 (WM-266-4 cells): < 3000 nM
